Reference: ChEMBL document CHEMBL1201862, “PubChem BioAssay data set” (2004)
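Interpolation was linear, between the two tested concentrations surrounding the appropriate level; five concentrations were tested over 48 hours in 96-well plates. GI50 marks 50% less growth.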 Activity calls are given as the source filed them. Rule as the data show it: active = GI50 up to about 1.1 µM and inactive = higher.

Tests used:
Experiment in all cases: growth of human tumour cells (NCI), 48 h
786-0 = system: 786-0
A549 = system: A549
ACHN = system: ACHN
BT-549 = system: BT-549
CAKI-1 = system: CAKI-1
CCRF-CEM = system: CCRF-CEM
COLO 205 = system: COLO 205
DU-145 = system: DU-145
EKVX = system: EKVX
HCC 2998 = system: HCC 2998
HCT-116 = system: HCT-116
HCT-15 = system: HCT-15
HOP-62 = system: HOP-62
HOP-92 = system: HOP-92
HT-29 = system: HT-29
Hs-578T = system: Hs-578T
IGROV-1 = system: IGROV-1
K562 = system: K562
KM12 = system: KM12
LOX IMVI = system: LOX IMVI
MCF7 = system: MCF7
MDA-MB-231 = system: MDA-MB-231
MDA-MB-435 = system: MDA-MB-435
MDA-N = system: MDA-N
MOLT-4 = system: MOLT-4
Malme-3M = system: Malme-3M
NCI-H226 = system: NCI-H226
NCI-H460 = system: NCI-H460
NCI-H522 = system: NCI-H522
NCI/ADR-RES = system: NCI/ADR-RES
OVCAR-3 = system: OVCAR-3
OVCAR-4 = system: OVCAR-4
OVCAR-5 = system: OVCAR-5
OVCAR-8 = system: OVCAR-8
PC-3 = system: PC-3
RXF 393 = system: RXF 393
SF-268 = system: SF-268
SF-295 = system: SF-295
SF-539 = system: SF-539
SK-MEL-28 = system: SK-MEL-28
SK-MEL-2 = system: SK-MEL-2
SK-MEL-5 = system: SK-MEL-5
SK-OV-3 = system: SK-OV-3
SN12C = system: SN12C
SNB-19 = system: SNB-19
SNB-75 = system: SNB-75
SW-620 = system: SW-620
T47D = system: T47D
TK-10 = system: TK-10
U-251 = system: U-251
UACC-257 = system: UACC-257
UACC-62 = system: UACC-62
UO-31 = system: UO-31
A498 = system: A498
M14 = system: M14
NCI-H23 = system: NCI-H23
RPMI-8226 = system: RPMI-8226
HL-60 = system: HL-60

Measured: GI50

Nc1nc(Cl)cc(NCC2(CO)CC=CC2)n1
inactive: 786-0 > 100 µM | A549 > 100 µM | ACHN > 100 µM | BT-549 33.1 µM | CAKI-1 > 100 µM | CCRF-CEM > 100 µM | COLO 205 > 100 µM | DU-145 > 100 µM | EKVX 71 µM | HCC 2998 > 100 µM | HCT-116 > 100 µM | HOP-62 > 100 µM | HOP-92 > 100 µM | HT-29 > 100 µM | Hs-578T > 100 µM | IGROV-1 > 100 µM | K562 > 100 µM | KM12 > 100 µM | LOX IMVI > 100 µM | MCF7 > 100 µM | MDA-MB-231 > 100 µM | MDA-MB-435 > 100 µM | MDA-N > 100 µM | MOLT-4 > 100 µM | Malme-3M > 100 µM | NCI-H226 > 100 µM | NCI-H460 > 100 µM | NCI-H522 68.7 µM | NCI/ADR-RES > 100 µM | OVCAR-3 80.2 µM | OVCAR-4 80 µM | OVCAR-5 > 100 µM | OVCAR-8 79.8 µM | PC-3 > 100 µM | RXF 393 33.1 µM | SF-268 > 100 µM | SF-295 > 100 µM | SF-539 > 100 µM | SK-MEL-28 > 100 µM | SK-MEL-2 > 100 µM | SK-MEL-5 46.3 µM | SK-OV-3 > 100 µM | SN12C > 100 µM | SNB-19 > 100 µM | SNB-75 > 100 µM | SW-620 > 100 µM | T47D 47.1 µM | TK-10 > 100 µM | U-251 > 100 µM | UACC-257 > 100 µM | UACC-62 > 100 µM | UO-31 > 100 µM
> 100 µM: HCT-15

O[C@H]1[C@H](O)[C@@H](O)[C@@]2(O)CC[C@@H]1N2
inactive: 786-0 > 100 µM | A498 > 100 µM | A549 > 100 µM | ACHN > 100 µM | BT-549 > 100 µM | CAKI-1 > 100 µM | CCRF-CEM > 100 µM | COLO 205 > 100 µM | DU-145 > 100 µM | EKVX > 100 µM | HCC 2998 > 100 µM | HCT-116 > 100 µM | HOP-62 > 100 µM | HOP-92 > 100 µM | HT-29 > 100 µM | Hs-578T > 100 µM | IGROV-1 > 100 µM | K562 > 100 µM | KM12 > 100 µM | LOX IMVI > 100 µM | M14 > 100 µM | MCF7 > 100 µM | MDA-MB-231 > 100 µM | MDA-MB-435 > 100 µM | MDA-N > 100 µM | MOLT-4 > 100 µM | Malme-3M > 100 µM | NCI-H226 > 100 µM | NCI-H23 > 100 µM | NCI-H460 > 100 µM | NCI-H522 > 100 µM | NCI/ADR-RES > 100 µM | OVCAR-3 > 100 µM | OVCAR-4 > 100 µM | OVCAR-5 > 100 µM | OVCAR-8 > 100 µM | PC-3 > 100 µM | RXF 393 > 100 µM | SF-268 > 100 µM | SF-295 > 100 µM | SF-539 > 100 µM | SK-MEL-28 > 100 µM | SK-MEL-2 > 100 µM | SK-MEL-5 > 100 µM | SK-OV-3 > 100 µM | SN12C > 100 µM | SNB-19 > 100 µM | SNB-75 > 100 µM | SW-620 > 100 µM | T47D > 100 µM | TK-10 > 100 µM | U-251 > 100 µM | UACC-257 > 100 µM | UACC-62 > 100 µM | UO-31 > 100 µM
> 100 µM: HCT-15

Cc1cn(Cc2cnnn2CC2OC(n3cc(C)c(=O)[nH]c3=O)CC2O)c(=O)[nH]c1=O (stereo not drawn)
> 100 µM: HCT-15
inactive: A498 > 100 µM | A549 > 100 µM | ACHN > 100 µM | BT-549 > 100 µM | CAKI-1 > 100 µM | CCRF-CEM > 100 µM | COLO 205 > 100 µM | DU-145 > 100 µM | EKVX > 100 µM | HCC 2998 > 100 µM | HCT-116 > 100 µM | HOP-62 > 100 µM | HOP-92 > 100 µM | Hs-578T > 100 µM | IGROV-1 > 100 µM | KM12 > 100 µM | LOX IMVI > 100 µM | M14 > 100 µM | MCF7 > 100 µM | MDA-MB-231 > 100 µM | MDA-MB-435 > 100 µM | MDA-N > 100 µM | MOLT-4 > 100 µM | Malme-3M > 100 µM | NCI-H226 > 100 µM | NCI-H23 > 100 µM | NCI/ADR-RES > 100 µM | OVCAR-3 > 100 µM | OVCAR-4 > 100 µM | OVCAR-5 > 100 µM | OVCAR-8 > 100 µM | PC-3 > 100 µM | RPMI-8226 > 100 µM | RXF 393 > 100 µM | SF-268 > 100 µM | SF-295 > 100 µM | SF-539 > 100 µM | SK-MEL-28 > 100 µM | SK-MEL-2 > 100 µM | SK-MEL-5 > 100 µM | SK-OV-3 > 100 µM | SN12C > 100 µM | SNB-19 > 100 µM | SW-620 > 100 µM | T47D > 100 µM | TK-10 > 100 µM | U-251 > 100 µM | UACC-257 > 100 µM | UACC-62 > 100 µM | UO-31 > 100 µM

Cc1c2c(c(C)c3c[n+](C)ccc13)Oc1ccccc1O2
inactive: 786-0 6.62 µM | A498 28.6 µM | A549 1.84 µM | ACHN 34.9 µM | BT-549 2.67 µM | CAKI-1 > 67.5 µM | CCRF-CEM 3.87 µM | COLO 205 6.34 µM | DU-145 22.9 µM | EKVX 9.44 µM | HCC 2998 6.56 µM | HCT-116 22.8 µM | HL-60 13.3 µM | HOP-62 8.89 µM | HOP-92 34.8 µM | HT-29 20 µM | Hs-578T 3.13 µM | IGROV-1 13.9 µM | K562 3.59 µM | LOX IMVI 22.3 µM | M14 18.2 µM | MCF7 9.12 µM | MDA-MB-231 24.6 µM | MDA-MB-435 15.1 µM | MDA-N 18.6 µM | MOLT-4 3.02 µM | Malme-3M 2.56 µM | NCI-H226 5.66 µM | NCI-H23 6.9 µM | NCI-H460 3.4 µM | NCI-H522 4.42 µM | NCI/ADR-RES > 100 µM | OVCAR-3 3.17 µM | OVCAR-4 9.42 µM | OVCAR-5 18.2 µM | OVCAR-8 6.05 µM | PC-3 16.3 µM | RPMI-8226 1.88 µM | RXF 393 34.7 µM | SF-268 1.64 µM | SF-295 5.69 µM | SF-539 3.78 µM | SK-MEL-28 13.7 µM | SK-MEL-2 12.2 µM | SK-MEL-5 4.32 µM | SK-OV-3 23.5 µM | SN12C 1.77 µM | SNB-19 1.74 µM | SNB-75 5.28 µM | SW-620 16.9 µM | T47D 2.57 µM | TK-10 50.9 µM | U-251 1.21 µM | UACC-257 6.87 µM | UACC-62 12.7 µM | UO-31 94.4 µM
active: KM12 0.82 µM
> 62.2 µM: HCT-15
